# From US20080293583A1, “Methods for diagnosing mood disorders” (Wyeth, priority 2003, published 2008)
# What was measured:
# Type in all cases: in vivo
# [1] = test system: Transcription factor BTEB 1; assay: 2-DE proteome analysis of rat hippocampus: BTEB 1; conditions: rat hippocampus cytosolic extract, 10 mg/kg i.p. daily 14 days, vs control; gel spot 19
# Protocol: (§1) Animal dosing. Adult male Sprague Dawley rats weighing 230-320 g were housed with ad libitum access to food and water. After 1 week of habituation, rats were administered either an antidepressant or vehicle alone. The following drugs were administered intraperitoneally (i.p.): fluoxetine (10 mg/kg daily), venlafaxine (10 mg/kg daily) or vehicle alone (1 ml/kg normal saline daily) for 14 days (n=3 rats per group).
# (§2) Sample preparation and cytosolic protein extraction. The animals were euthanized and hippocampi were rapidly dissected from the whole brain. Samples from each treatment group were pooled and stored at −85° C. Cytosolic extracts were prepared using the universal extraction kit from Sigma (prot-two) as follows: soluble cytoplasmic extraction reagent (S2688) was added to the hippocampal tissue (10 ml/250 mg wet weight). […]
# (§3) Two-dimensional gel electrophoresis. […] Molecular masses were determined by running standard protein markers (Genomic Solutions Inc.), covering the range 10-200 kDa as well as internal verification via landmark proteins within the gel. […]
# (§4) Protein fixation, silver staining and 2-D gel comparisons. […] Protein spots were outlined (first automatically and then manually) and quantified using the HT analyzer v2.2 software (Genomic Solutions Inc.). The software calculated the relative spot volume of the proteins compared with the total amount of protein in the gel. […]
# [2] = test system: Hippocampal Cholinergic Neurostimulating peptide (PEBP; HCNP; Raf kinase inhibitor protein); assay: 2-DE proteome analysis of rat hippocampus: HCNP; conditions: rat hippocampus cytosolic extract, 10 mg/kg i.p. daily 14 days, vs control; gel spot 60
# Protocol: as §1, §2, §3, §4
# [3] = test system: Transcription Initiation factor IIA Gamma Chain; assay: 2-DE proteome analysis of rat hippocampus: TFIIA Gamma Chain; conditions: rat hippocampus cytosolic extract, 10 mg/kg i.p. daily 14 days, vs control; gel spot 88
# Protocol: as §1, §2, §3, §4
# [4] = test system: Myelin Basic Protein S (MBP S); assay: 2-DE proteome analysis of rat hippocampus: MBP S; conditions: rat hippocampus cytosolic extract, 10 mg/kg i.p. daily 14 days, vs control; gel spot 64
# Protocol: as §1, §2, §3, §4
SMILES,"Fold change, Transcription factor BTEB 1 [1] [Fold change]","Fold change, Hippocampal Cholinergic Neurostimulating peptide (PEBP; HCNP) [2] [Fold change]","Fold change, Transcription Initiation factor IIA Gamma Chain [3] [Fold change]","Fold change, Myelin Basic Protein S (MBP S) [4] [Fold change]"
"CNCCC(Oc1ccc(C(F)(F)F)cc1)c1ccccc1 (centres unmarked) [Fluoxetine, fluoxetine]",1.6,1.9,2.5,3.1
"COc1ccc(C(CN(C)C)C2(O)CCCCC2)cc1 (centres unmarked) [Venlafaxine, venlafaxine]",2.3,2,2.4,3.7
